Laboratory results taken from patent publication US20230067926A1, “SYSTEMS AND METHODS FOR MONITORING PLATELET ACTIVATION” (The Regents of the University of Michigan, priority 2021, published 2023).

What was measured:
[1] = tested on: activated platelets in whole blood; experiment: PDA liposome-9F9 microarray detection of activated platelets in whole blood; type: cell-based, human
Description: To fabricate the PDA liposome Microarray, the liposomes were covalently immobilized on amine-modified glass slides through the amine-epoxy chemistry. 0.5 mM PDA-epoxy liposome solution was spotted on amine-coated glass slides with a manual microarrayer (VP 475, V&P scientific, INC) and was incubated at 5° C. for 24 hrs to prevent fast drying of the spotted solution. After removing the unbound liposomes by rinsing with 5 mM of pH 8 HEPES buffer, the PDA liposome-spotted slides were incubated with 0.06 mg/ml of 9F9 antibody in 5 mM of pH 8 HEPES buffer for 1 hr. After removing the unbound antibodies by rinsing with 5 mM of pH 8 HEPES buffer. […]
Detection of Activated Platelet with PDA Liposome Microarray. […] After 20 mins of incubation, fluorescence microscope images were obtained on Olympus BX 71 microscope equipped with a mercury lamp and a cut-off filter of 540 nm excitation and 600 nm emission. For fluorescence signal intensity measurement, the fabricated PDA liposome-9F9 microarray was placed on top of a 96-well plate and the combined substrates were inserted into a plate reader. Fluorescence emission intensities at 634 nm of total 120 microarray spots from three different devices were individually measured by using the excitation wavelength of 548 nm. […]

[2] = tested on: collagen and epinephrine stimulated human platelets; experiment: cells; settings: Platelet, read-out: IC50 of inhibition of collagen-stimulated platelet activation
Description: Fluorescence-activated Cell Sorting Analysis. […] Collagen (40 μg/ml) was then added (4 μl) and incubated for 2 min at room temperature in all tubes. Platelet activation was measured by using 20 μl of the anti-9F9 antibody-FITC and 10 μl of the constitutive platelet marker, anti-CD61-PE (Phycierythrin). As a control for the anti-9F9 antibody, 10 μl of the isotype control, anti-mouse IgG1-FITC, was used with 10 μl of anti-CD61-PE in a separate tube. The antibodies were incubated at room temperature in the dark for 15 minutes. After the incubation, 700 μl of 1% formalin/dPBS was added to each tube and stored at 4° C. for up to 24 hrs post fixing until ready to run the fluorescence-activated cell sorting (FACS) analysis on a FACSCalibur flow cytometer (Beckton Dickenson San Jose, Calif.). CellQuest software (Beckton Dickenson San Jose, Calif.) was employed for the data analysis.
Cell populations were identified for data collection by their log forward scatter (FSC) and log side scatter (SSC) light profiles. […] Mean fluorescence intensity (MFI) of the anti-9F9 immunostaining was quantitated by a FITC (FL1) versus PE (FL2) log plot analysis. […] The adjusted WI was expressed as the geometric mean channel fluorescence minus the appropriate isotype control. The platelet reactivity index (PRI) was calculated by the following equation: […]

Row | Compound | limit of detection of Tirofiban in the sample (fluorescence signal decrease) ([1]; whole blood with collagen, 20 mins incubation, PDA microarray fluorescence (FIG. 3)) | IC50 [2] | red fluorescence intensity with added collagen relative to device without it ([1]; whole blood samples with and without 40 mg/ml of collagen, 20-min incubation (FIG. 2))
1 | CCCCS(=O)(=O)N[C@@H](Cc1ccc(OCCCCC2CCNCC2)cc1)C(=O)O [Tirofiban] | 0.16 µM | ~1.5 pM | 
2 | collagen |  |  | 2.8 times
